The values below come from ChEMBL document CHEMBL1121444, “Biological significance and therapeutic potential of prostacyclin” (J Med Chem, 1980).

Each structure is given as a SMILES string.

The nature of the series: Compound was evaluated for half life at 37 degree Centigrade.

A word on the half-life: it is the time needed for the level to fall by half in the phase considered. A higher half-life goes with slow loss. For the compound `CCCCC[C@H](O)/C=C/C1OC2CC(O2)[C@@H]1C/C=C\CCCC(=O)O` (some centres not stated), the half-life was 0.5 min.

On to `CCCCC[C@H](O)/C=C/[C@@H]1[C@H]2C/C(=C/CCCC(=O)O)O[C@H]2C[C@H]1O` [EPOPROSTENOL], for which the half-life was found to be 3 min.
